Results published in patent US11781114B2, “Materials and methods for expansion of stem cells” (FLORIDA STATE UNIVERSITY RESEARCH FOUNDATION, INC., priority 2014, dated 2023).
“Also recorded” adds a separate entry of the source.

Key:
Format in all cases: cell-based, human
hMSC aggregates [1] = assay: hMSC aggregate formation and compaction (aggregate size) with cytoskeleton modulators; design: aggregate compaction vs non-treated control: dose or concentration left out as unconfirmed; conditions: for aggregate compaction / aggregate diameter: 0.2 to 0.6 μM; for aggregate compaction vs non-treated control: nocodazole 3D treatment
Procedure: hMSCs from monolayer culture were trypsinized and 100 μL media containing 5,000 cells were added in each well of an ultra-low attachment (ULA) 96-well plate with round-bottom (Corning, Corning, N.Y.) for overnight. To analyze size-dependent ATP contents, aggregates containing 500, 2,000, and 5,000 cells were used following the same method. Suspended single hMSCs spontaneously self-assembled into one aggregate per well. Aggregates were cultured individually up to 7 days with media change every two days. The aggregates were tracked individually and the morphologies were imaged with an Olympus IX70 microscope (Center Valley, Pa.).
Cytochalasin D (cytoD), lysophosphatidic acid (LPA), Y-27632, nocodazole were added into culture media to final concentrations of 0.2 to 0.6 μM, 2.0 to 10.0 μM, 2.0 to 10 μM, and […], respectively. To test the temporal effects of actin modulators on aggregate formation, cells were treated with media containing cytoD and LPA during monolayer culture prior to aggregate formation (termed “2D Pretreatment”) or 12 hours after aggregate formation in ULA plates (termed “3D Treatment). Only 3D treatments were performed for Y-27632 and nocodazole.
Morphology of the aggregates was visualized using an Olympus IX70 microscope and the images recorded. The images were processed and the areas of the individual aggregates were calculated using ImageJ software (rsb.info.nih.gov/ij/). The DNA content of the individual aggregates was used to calculate cell number. Briefly, individually collected hMSC aggregates were washed with phosphate buffered saline (PBS) and digested with proteinase K overnight. PicoGreen (Life Technologies) was added to triplicate samples and a DNA standard in a 96-well plate. The cell numbers in aggregates were determined by the PicoGreen fluorescence intensity using 9.3 pg/cell as determined in our prior study (Kim and Ma 2012). DNA assay detects double-stranded DNA that may also be present in dead cells with intact DNA. However, this population in the aggregates is low, and the yield of live cells measured by DNA assay is close to cell count using other methods such as flow cytometry (Ylostalo et al. 2014). The packing densities were calculated using cell number divided by aggregate volume assuming a spherical shape. At least six aggregates were used in each condition.

hMSC aggregates [2] = assay: Cell survival and packing density of aggregates by DNA content (PicoGreen)
Procedure: The DNA content of the individual aggregates was used to calculate cell number. Briefly, individually collected hMSC aggregates were washed with phosphate buffered saline (PBS) and digested with proteinase K overnight. PicoGreen (Life Technologies) was added to triplicate samples and a DNA standard in a 96-well plate. The cell numbers in aggregates were determined by the PicoGreen fluorescence intensity using 9.3 pg/cell as determined in our prior study (Kim and Ma 2012). […] The packing densities were calculated using cell number divided by aggregate volume assuming a spherical shape. At least six aggregates were used in each condition.

IL-6 = assay: Secreted IL-6 in conditioned media (ELISA); conditions: treated 3D aggregates
Procedure: (§1) Caspase 3/7 activity was measured by Caspase-Glo 3/7 assay systems (Promega, Madison, Wis.). Caspase-Glo 3/7 working buffer was added to triplicate samples containing aggregates and culture media in 96-well [sequence] 200 white immunology plate (Greiner Bio-One, Monroe, N.C.). The results were read by a luminescence plate reader and normalized to cell number (Biotek Instruments, Winooski, Vt.). Secreted PGE-2 and IL-6 in conditioned media were quantified using a PGE-2 Parameter Assay Kit and IL-6 DuoSet ELISA kits, respectively (R&D Systems, Minneapolis, Minn.). Total secreted PGE-2 and IL-6 were determined by subtracting cytokine concentrations in culture media controls and normalized to the cell number in the aggregates.

PGE-2 = assay: Secreted PGE-2 in conditioned media (Parameter Assay Kit); conditions: treated 3D aggregates
Procedure: as §1

Caspase 3/7 = assay: Caspase-Glo 3/7 assay; conditions: for caspase 3/7 activity in 3D aggregates: normalized to cell number
Procedure: as §1

hMSC aggregates [3] = assay: Aggregate spreading on glass coverslip and fusion on ULA surface; conditions: for aggregate spreading on glass coverslip / fusion of adjacent aggregates on ULA surface: aggregates treated for 5 days
Procedure: To test re-adhesion and fusion, the aggregates from various treatment conditions were plated on glass coverslip for re-adhesion or placed adjacently on ULA surface for fusion. Images were captured with Olympus IX70 microscope and analyzed by ImageJ software.

hMSC aggregates [4] = assay: Morphology by SEM, H&E histology and F-actin staining; conditions: for cell morphology in the aggregates (SEM and histology) / outer boundary of aggregates (H&E, F-actin staining of sections): treated aggregates vs control aggregates; for hMSC morphology on 2D planar surface (F-actin staining): nocodazole treatment
Procedure: For SEM, the aggregate samples were fixed in 4% paraformaldehyde (PFA), dehydrated through a graded series of ethanol, incubated in hexamethyldisilazane, and vacuum dried overnight. The samples were mounted onto carbon-coated chucks, sputter-coated with gold in an argon atmosphere for 4 minutes at 2 kV, and analyzed on a SEM (JSM-7401F) (JEOL, Tokyo, Japan). For immunostaining, the cells were fixed with 4% PFA, permeabilized with 0.5% Triton X-100, blocked with 1.0% BSA, incubated with primary antibody, and imaged with an Olympus IX70 (Center Valley, Pa.) microscope. For histology, hematoxylin-eosin (H&E) staining was performed following the prior reported method (Kim and Ma 2012). hMSC aggregates were fixed in 10% formalin, dehydrated and embedded in paraffin wax; 10 μm sections were cut and stained with Lerner-2 Hematoxylin (Lerner Laboratories, Pittsburgh, Pa.) and Eosin-Y w/ Phloxine (Richard-Allan Scientific, Kalamazoo, Mich.) by standard procedures (Kim and Ma 2012). Images were captured with Olympus IX70 microscope with MagnaFire SP 2.1B software.

hMSC aggregates [5] = assay: hMSC aggregate formation and compaction (aggregate size) with cytoskeleton modulators; conditions: cytoD 2D pretreatment, concentration above 0.6 μM (high concentration)
[6] = Q-VD-OPh, after three days of culture
[7] = 0.6 μM cytoD 3D treatment, day 5

## CC(C)[C@H](NC(=O)c1ccc2ccccc2n1)C(=O)N[C@@H](CC(=O)O)C(=O)COc1c(F)cccc1F [Q-VD-OPh]
hMSC aggregates [1]; [6]
  aggregate compaction vs control: significantly reduced cell compaction
hMSC aggregates [2]; [6]
  cell packing density vs control: increased cell packing density; also recorded: higher packing density
  cell viability / survival vs control: improved cell survival; also recorded: significantly increased cell viability
IL-6
  IL-6 secretion of 3D aggregates: attenuated to basal levels
PGE-2
  PGE-2 secretion of 3D aggregates: attenuated to basal levels

## C[C@@H](N)[C@H]1CC[C@H](C(=O)Nc2ccncc2)CC1 [Y-27632]
hMSC aggregates [1]; 10 μM Y-27632, day 5
  increase in aggregate diameter compared to control aggregates: 6.7%
hMSC aggregates [1]; Y-27632 3D treatment, 10 μM
  aggregate compaction: prevented aggregate compaction; also recorded: reduced aggregate compaction
hMSC aggregates [2]; 10 μM Y-27632, 5 days of treatment
  cell viability / cell survival vs control aggregates: lower than non-treated control; also recorded: comparable or even less
hMSC aggregates [2]; 10 μM Y-27632, day 5
  decrease in cell packing density compared to control aggregates: 38.7%
hMSC aggregates [2]; Y-27632, day 5
  cell packing density vs control (in words): significantly lower
Caspase 3/7
  caspase 3/7 activity in 2D adherent culture: increased caspase 3/7 activity
  caspase 3/7 activity in 3D aggregates: highest caspase 3/7 activity; also recorded: increased caspase 3/7 activity
hMSC aggregates [3]
  aggregate spreading on glass coverslip: readily re-adhered and spread on glass coverslips
  fusion of adjacent aggregates on ULA surface: fused when adjacently placed on ULA surface; also recorded: reduced tendency to fuse
IL-6
  IL-6 secretion of 3D aggregates: limited effects
PGE-2
  PGE-2 secretion of 3D aggregates: limited effects
hMSC aggregates [4]
  cell morphology in the aggregates (SEM and histology): large interstitial space and exhibit round morphology; also recorded: loosely packed and exhibited spherical morphology with abundant interstitial space
  outer boundary of aggregates (H&E, F-actin staining of sections): disintegrated outer boundaries; also recorded: discontinuous outer boundary; also recorded: loosely packed with no spreading at the boundary

## C=C1[C@@H](C)[C@H]2[C@H](Cc3ccccc3)NC(=O)[C@]23[C@H](OC(C)=O)/C=C/[C@@](C)(O)C(=O)[C@@H](C)C/C=C/[C@H]3[C@@H]1O [cytoD, Cytochalasin D]
hMSC aggregates [1]; cytoD 2D pretreatment, lower concentrations
  aggregate compaction: prevented aggregate compaction
hMSC aggregates [1]; cytoD 2D pretreatment, lower concentrations, listed as CytoD
  aggregate compaction: reduced compaction
hMSC aggregates [1]; cytoD 3D treatment, 0.6 μM
  aggregate integrity: remained intact
hMSC aggregates [1]; cytoD 3D treatment
  aggregate compaction / aggregate diameter: dose-dependent reduction on compaction
hMSC aggregates [1]; cytoD 3D treatment, listed as CytoD
  aggregate compaction / aggregate diameter: reduced compaction; also recorded: Dose-dependent decline of aggregate diameters
hMSC aggregates [2]; [7]
  cell viability / cell survival vs control aggregates: significantly reduced cell viability; also recorded: significantly lower cell survival
  packing density vs control aggregates: significantly reduced; also recorded: significantly lower
Caspase 3/7
  caspase 3/7 activity in 2D adherent culture: significantly increased caspase 3/7 activity
  caspase 3/7 activity in 3D aggregates: comparable apoptotic activity
hMSC aggregates [3]
  aggregate spreading on glass coverslip: abolishes; also recorded: did not spread on glass coverslips; also recorded: completely prevented aggregate spreading on glass coverslip
  fusion of adjacent aggregates on ULA surface: abolishes; also recorded: nor fused; also recorded: completely prevented
hMSC aggregates [3]; hBMSC aggregates on ULA plates / glass
  fusion and adhesion properties of hBMSC aggregates: abrogated their fusion and adhesion properties; also recorded: abrogates these properties
IL-6
  IL-6 secretion of 3D aggregates: limited effects
PGE-2
  PGE-2 secretion of 3D aggregates: limited effects
hMSC aggregates [4]
  cell morphology in the aggregates (SEM and histology): large interstitial space and exhibit round morphology; also recorded: loosely packed and exhibited spherical morphology with abundant interstitial space
  outer boundary of aggregates (H&E, F-actin staining of sections): loosely packed with no spreading at the boundary
hMSC aggregates [4]; listed as CytoD
  outer boundary of aggregates (H&E, F-actin staining of sections): disintegrated outer boundaries; also recorded: discontinuous outer boundary
hMSC aggregates [4]; listed as cytochalasin D
  outer boundary of aggregates (H&E, F-actin staining of sections): disrupted the mechanically polarized outer layer
hMSC aggregates [5]
  hMSC aggregation (aggregate formation): disrupted hMSC aggregation
hMSC aggregates [5]; listed as CytoD
  hMSC aggregation (aggregate formation): prevented hMSC aggregation

## COC(=O)Nc1nc2cc(C(=O)c3cccs3)ccc2[nH]1 [nocodazole]
hMSC aggregates [1]
  aggregate compaction vs non-treated control: comparable contractility with control aggregates; also recorded: comparable or higher compaction
hMSC aggregates [1]; listed as Nocodazole
  aggregate compaction vs non-treated control: faster compaction
hMSC aggregates [3]
  aggregate spreading on glass coverslip: readily spread on adherent surface; also recorded: readily re-adhered and spread on glass coverslips; also recorded: spread on glass coverslip
  fusion of adjacent aggregates on ULA surface: fuse with neighboring aggregates; also recorded: fused when adjacently placed on ULA surface; also recorded: readily fused
hMSC aggregates [4]
  hMSC morphology on 2D planar surface (F-actin staining): drastic changes of cell morphology
hMSC aggregates [4]; listed as Nocodazole
  hMSC morphology on 2D planar surface (F-actin staining): significantly altered hMSC morphology

## lysophosphatidic acid [LPA]
hMSC aggregates [1]; LPA up to 10 μM, 2D pretreatment and 3D treatment
  aggregate compaction vs control: minimal impact on aggregate compaction; also recorded: declined at the same rate as control; also recorded: limited effects
hMSC aggregates [2]; LPA up to 10 μM, 5 days 3D treatment
  viability / cell survival vs control: comparable cell survival; also recorded: limited effects
hMSC aggregates [2]; LPA, 5 days 3D treatment
  cell packing density vs control: comparable
Caspase 3/7
  caspase 3/7 activity in 2D adherent culture: increased caspase 3/7 activity
  caspase 3/7 activity in 3D aggregates: increased caspase 3/7 activity
hMSC aggregates [3]
  aggregate spreading on glass coverslip: readily re-adhered and spread on glass coverslips; also recorded: spread on glass coverslip
  fusion of adjacent aggregates on ULA surface: fused when adjacently placed on ULA surface; also recorded: readily fused
